From patent US11173151B2, “Substituted triazole derivatives and uses thereof” (BAYER AKTIENGESELLSCHAFT, priority 2017, dated 2021)

Experiments:
[1] = molecular target: T1, human V1a receptor (Homo sapiens, UniProt P37288); assay: Cellular in vitro assay for determining vasopressin receptor activity, V1a receptor cell line (CHO, aequorin luminescence); type: cell-based; conditions: for IC50: CHO cell line transfected with human V1a receptor, [Arg]-vasopressin at EC50 concentration, read-out: IC50 hV1a; for ratio IC50 hV2/hV1a: selectivity ratio IC50 hV2 / IC50 hV1a
T1 construct: expressed in transfected cells; host or cells: CHO K1 (ATCC), also stably transfected with a modified aequorin
T1 sequence (P37288 whole entry): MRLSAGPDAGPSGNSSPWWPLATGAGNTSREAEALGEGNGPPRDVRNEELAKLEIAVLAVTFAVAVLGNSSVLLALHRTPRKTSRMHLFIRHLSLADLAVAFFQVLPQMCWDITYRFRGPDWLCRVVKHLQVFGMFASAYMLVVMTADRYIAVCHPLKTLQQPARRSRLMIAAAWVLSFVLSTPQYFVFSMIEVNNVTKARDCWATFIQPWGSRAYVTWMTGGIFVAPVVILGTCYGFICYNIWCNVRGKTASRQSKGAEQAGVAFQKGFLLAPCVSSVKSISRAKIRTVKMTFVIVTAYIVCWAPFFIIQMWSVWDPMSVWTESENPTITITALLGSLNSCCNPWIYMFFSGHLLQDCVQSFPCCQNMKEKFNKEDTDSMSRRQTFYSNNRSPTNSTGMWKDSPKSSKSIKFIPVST
Method in brief: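 Antagonism is measured in stable CHO K1 transfectants coexpressing the Gαq-coupled receptor and a calcium-sensitive aequorin photoprotein. Agonist challenge uses [Arg]-vasopressin at EC50 after a 10-minute compound exposure; IC50 values come from the luminescence signal.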

[2] = molecular target: T2, human V2 receptor (Homo sapiens, UniProt P30518); assay: Cellular in vitro assay for determining vasopressin receptor activity, V2 receptor cell line (CHO, CRE-luciferase); type: cell-based; conditions: CHO cell line transfected with human V2 receptor; [Arg8]-vasopressin at EC50 concentration, 3 hours; read-out: IC50 hV2
T2 construct: expressed in transfected cells; host or cells: CHO K1 (ATCC) expressing firefly luciferase under a CRE-responsive promoter
T2 sequence (P30518 whole entry): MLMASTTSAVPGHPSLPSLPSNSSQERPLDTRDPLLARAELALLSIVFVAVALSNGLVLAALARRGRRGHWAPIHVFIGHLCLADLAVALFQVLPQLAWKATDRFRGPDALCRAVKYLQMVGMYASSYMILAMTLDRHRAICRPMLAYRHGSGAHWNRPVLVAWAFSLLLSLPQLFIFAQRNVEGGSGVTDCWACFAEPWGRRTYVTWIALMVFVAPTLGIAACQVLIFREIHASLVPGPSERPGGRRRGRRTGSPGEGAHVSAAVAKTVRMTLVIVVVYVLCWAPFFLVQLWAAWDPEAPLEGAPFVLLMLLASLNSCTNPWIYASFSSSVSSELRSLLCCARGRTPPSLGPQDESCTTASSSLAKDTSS

Compound: NC(=O)[C@H]1CCCN1C(=O)c1ccccc1-n1cnc(Cn2nc(-c3ccc(Cl)cc3)n(C[C@H](O)C(F)(F)F)c2=O)n1 [Example 194, 1-{2-[3-({3-(4-Chlorophenyl)-5-oxo-4-[(2S)-3,3,3-trifluoro-2-hydroxypropyl]-4,5-dihydro-1H-1,2,4-triazol-1-yl}methyl)-1H-1,2,4-triazol-1-yl]benzoyl}-D-prolinamide]
- IC50 [1]: 63.5 nM
- ratio IC50 hV2/hV1a [1]: 46.5
- IC50 [2]: 2950 nM

Compound: NC(=O)[C@@H]1CCCN1C(=O)c1ccccc1-n1cnc(Cn2nc(-c3ccc(Cl)cc3)n(C[C@H](O)C(F)(F)F)c2=O)n1 [Example 195, 1-{2-[3-({3-(4-Chlorophenyl)-5-oxo-4-[(2S)-3,3,3-trifluoro-2-hydroxypropyl]-4,5-dihydro-1H-1,2,4-triazol-1-yl}methyl)-1H-1,2,4-triazol-1-yl]benzoyl}-L-prolinamide]
- IC50 [1]: 104 nM
- ratio IC50 hV2/hV1a [1]: 23.0
- IC50 [2]: 2390 nM

Compound: NC(=O)[C@@H]1CC(F)(F)CN1C(=O)c1ccccc1-n1cnc(Cn2nc(-c3ccc(Cl)cc3)n(C[C@H](O)C(F)(F)F)c2=O)n1 [Example 197, 1-{2-[3-({3-(4-Chlorophenyl)-5-oxo-4-[(2S)-3,3,3-trifluoro-2-hydroxypropyl]-4,5-dihydro-1H-1,2,4-triazol-1-yl}methyl)-1H-1,2,4-triazol-1-yl]benzoyl}-4,4-difluoro-L-prolinamide]
- IC50 [1]: 49.5 nM
- ratio IC50 hV2/hV1a [1]: 140.4
- IC50 [2]: 6950 nM

Compound: NC(=O)[C@H]1CC(F)(F)CN1C(=O)c1ccccc1-n1cnc(Cn2nc(-c3ccc(Cl)cc3)n(C[C@H](O)C(F)(F)F)c2=O)n1 [Example 198, 1-{2-[3-({3-(4-Chlorophenyl)-5-oxo-4-[(2S)-3,3,3-trifluoro-2-hydroxypropyl]-4,5-dihydro-1H-1,2,4-triazol-1-yl}methyl)-1H-1,2,4-triazol-1-yl]benzoyl}-4,4-difluoro-D-prolinamide]
- IC50 [1]: 22 nM
- ratio IC50 hV2/hV1a [1]: 245.5
- IC50 [2]: 5400 nM

Compound: NC(=O)[C@@H]1CCN(C(=O)c2ccccc2-n2cnc(Cn3nc(-c4ccc(Cl)cc4)n(C[C@H](O)C(F)(F)F)c3=O)n2)C1 [Example 199, (3R)-1-{2-[3-({3-(4-Chlorophenyl)-5-oxo-4-[(2S)-3,3,3-trifluoro-2-hydroxypropyl]-4,5-dihydro-1H-1,2,4-triazol-1-yl}methyl)-1H-1,2,4-triazol-1-yl]benzoyl}pyrrolidine-3-carboxamide]
- IC50 [1]: 36.5 nM
- ratio IC50 hV2/hV1a [1]: 66.4
- IC50 [2]: 2420 nM

Compound: NC(=O)[C@H]1CCN(C(=O)c2ccccc2-n2cnc(Cn3nc(-c4ccc(Cl)cc4)n(C[C@H](O)C(F)(F)F)c3=O)n2)C1 [Example 200, (3S)-1-{2-[3-({3-(4-Chlorophenyl)-5-oxo-4-[(2S)-3,3,3-trifluoro-2-hydroxypropyl]-4,5-dihydro-1H-1,2,4-triazol-1-yl}methyl)-1H-1,2,4-triazol-1-yl]benzoyl}pyrrolidine-3-carboxamide]
- IC50 [1]: 11.2 nM
- ratio IC50 hV2/hV1a [1]: 153.3
- IC50 [2]: 1730 nM

Compound: CC1=NN=C(C)C1NC(=O)c1ccccc1-n1cnc(Cn2nc(-c3ccc(Cl)cc3)n(C[C@H](O)C(F)(F)F)c2=O)n1 [Example 201, 2-[3-({3-(4-Chlorophenyl)-5-oxo-4-[(2S)-3,3,3-trifluoro-2-hydroxypropyl]-4,5-dihydro-1H-1,2,4-triazol-1-yl}methyl)-1H-1,2,4-triazol-1-yl]-N-(3,5-dimethyl-4H-pyrazol-4-yl)benzamide]
- IC50 [1]: 1.2 nM
- ratio IC50 hV2/hV1a [1]: 3125.0
- IC50 [2]: 3750 nM

Compound: O=C(NCc1cccc(F)c1F)c1ccccc1-n1cnc(Cn2nc(-c3ccc(Cl)cc3)n(C[C@H](O)C(F)(F)F)c2=O)n1 [Example 203, 2-[3-({3-(4-Chlorophenyl)-5-oxo-4-[(2S)-3,3,3-trifluoro-2-hydroxypropyl]-4,5-dihydro-1H-1,2,4-triazol-1-yl}methyl)-1H-1,2,4-triazol-1-yl]-N-(2,3-difluorobenzyl)benzamide]
- IC50 [1]: 8.35 nM
- ratio IC50 hV2/hV1a [1]: 26.9
- IC50 [2]: 225 nM

Compound: Nc1ccc(NC(=O)c2ccccc2-n2cnc(Cn3nc(-c4ccc(Cl)cc4)n(C[C@H](O)C(F)(F)F)c3=O)n2)cc1 [Example 205, N-(4-Aminophenyl)-2-[3-({3-(4-chlorophenyl)-5-oxo-4-[(2S)-3,3,3-trifluoro-2-hydroxypropyl]-4,5-dihydro-1H-1,2,4-triazol-1-yl}methyl)-1H-1,2,4-triazol-1-yl]benzamide]
- IC50 [1]: 0.58 nM
- ratio IC50 hV2/hV1a [1]: 321.7
- IC50 [2]: 185 nM

Compound: Cn1nccc1CNC(=O)c1ccccc1-n1cnc(Cn2nc(-c3ccc(Cl)cc3)n(C[C@H](O)C(F)(F)F)c2=O)n1 [Example 206, 2-[3-({3-(4-Chlorophenyl)-5-oxo-4-[(2S)-3,3,3-trifluoro-2-hydroxypropyl]-4,5-dihydro-1H-1,2,4-triazol-1-yl}methyl)-1H-1,2,4-triazol-1-yl]-N-[(1-methyl-1H-pyrazol-5-yl)methyl]benzamide]
- IC50 [1]: 1.45 nM
- ratio IC50 hV2/hV1a [1]: 575.9
- IC50 [2]: 835 nM

Compound: O=C(NCc1cc(F)ccc1F)c1ccccc1-n1cnc(Cn2nc(-c3ccc(Cl)cc3)n(C[C@H](O)C(F)(F)F)c2=O)n1 [Example 207, 2-[3-({3-(4-chlorophenyl)-5-oxo-4-[(2S)-3,3,3-trifluoro-2-hydroxypropyl]-4,5-dihydro-1H-1,2,4-triazol-1-yl}methyl)-1H-1,2,4-triazol-1-yl]-N-(2,5-difluorobenzyl)benzamide]
- IC50 [1]: 5.35 nM
- ratio IC50 hV2/hV1a [1]: 57.0
- IC50 [2]: 305 nM

Compound: Cc1ccc(CNC(=O)c2ccccc2-n2cnc(Cn3nc(-c4ccc(Cl)cc4)n(C[C@H](O)C(F)(F)F)c3=O)n2)o1 [Example 209, 2-[3-({3-(4-Chlorophenyl)-5-oxo-4-[(2S)-3,3,3-trifluoro-2-hydroxypropyl]-4,5-dihydro-1H-1,2,4-triazol-1-yl}methyl)-1H-1,2,4-triazol-1-yl]-N-[(5-methylfuran-2-yl)methyl]benzamide]
- IC50 [1]: 5.65 nM
- ratio IC50 hV2/hV1a [1]: 23.0
- IC50 [2]: 130 nM

Compound: Cn1nccc1NC(=O)c1ccccc1-n1cnc(Cn2nc(-c3ccc(Cl)cc3)n(C[C@H](O)C(F)(F)F)c2=O)n1 [Example 210, 2-[3-({3-(4-Chlorophenyl)-5-oxo-4-[(2S)-3,3,3-trifluoro-2-hydroxypropyl]-4,5-dihydro-1H-1,2,4-triazol-1-yl}methyl)-1H-1,2,4-triazol-1-yl]-N-(1-methyl-1H-pyrazol-5-yl)benzamide]
- IC50 [1]: 1.65 nM
- ratio IC50 hV2/hV1a [1]: 457.6
- IC50 [2]: 755 nM

Compound: O=C(Nc1ccc(F)cn1)c1ccccc1-n1cnc(Cn2nc(-c3ccc(Cl)cc3)n(C[C@H](O)C(F)(F)F)c2=O)n1 [Example 211, 2-[3-({3-(4-Chlorophenyl)-5-oxo-4-[(2S)-3,3,3-trifluoro-2-hydroxypropyl]-4,5-dihydro-1H-1,2,4-triazol-1-yl}methyl)-1H-1,2,4-triazol-1-yl]-N-(5-fluoropyridin-2-yl)benzamide]
- IC50 [1]: 6.65 nM
- ratio IC50 hV2/hV1a [1]: 25.6
- IC50 [2]: 170 nM

Compound: O=C(Nc1cc(O)[nH]n1)c1ccccc1-n1cnc(Cn2nc(-c3ccc(Cl)cc3)n(C[C@H](O)C(F)(F)F)c2=O)n1 [Example 212, 2-[3-({3-(4-Chlorophenyl)-5-oxo-4-[(2S)-3,3,3-trifluoro-2-hydroxypropyl]-4,5-dihydro-1H-1,2,4-triazol-1-yl}methyl)-1H-1,2,4-triazol-1-yl]-N-(5-hydroxy-1H-pyrazol-3-yl)benzamide]
- IC50 [1]: 23.5 nM
- ratio IC50 hV2/hV1a [1]: 24.5
- IC50 [2]: 575 nM

Compound: Cc1cc(NC(=O)c2ccccc2-n2cnc(Cn3nc(-c4ccc(Cl)cc4)n(C[C@H](O)C(F)(F)F)c3=O)n2)n(C)n1 [Example 213, 2-[3-({3-(4-Chlorophenyl)-5-oxo-4-[(2S)-3,3,3-trifluoro-2-hydroxypropyl]-4,5-dihydro-1H-1,2,4-triazol-1-yl}methyl)-1H-1,2,4-triazol-1-yl]-N-(1,3-dimethyl-1H-pyrazol-5-yl)benzamide]
- IC50 [1]: 7.55 nM
- ratio IC50 hV2/hV1a [1]: 178.1
- IC50 [2]: 1340 nM

Compound: Cc1n[nH]c(C)c1NC(=O)c1ccccc1-n1cnc(Cn2nc(-c3ccc(Cl)cc3)n(C[C@H](O)C(F)(F)F)c2=O)n1 [Example 214, 2-[3-({3-(4-Chlorophenyl)-5-oxo-4-[(2S)-3,3,3-trifluoro-2-hydroxypropyl]-4,5-dihydro-1H-1,2,4-triazol-1-yl}methyl)-1H-1,2,4-triazol-1-yl]-N-(3,5-dimethyl-1H-pyrazol-4-yl)benzamide]
- IC50 [1]: 1.65 nM
- ratio IC50 hV2/hV1a [1]: 854.5
- IC50 [2]: 1410 nM

Compound: CCn1nccc1NC(=O)c1ccccc1-n1cnc(Cn2nc(-c3ccc(Cl)cc3)n(C[C@H](O)C(F)(F)F)c2=O)n1 [Example 215, 2-[3-({3-(4-Chlorophenyl)-5-oxo-4-[(2S)-3,3,3-trifluoro-2-hydroxypropyl]-4,5-dihydro-1H-1,2,4-triazol-1-yl}methyl)-1H-1,2,4-triazol-1-yl]-N-(1-ethyl-1H-pyrazol-5-yl)benzamide]
- IC50 [1]: 11.7 nM
- ratio IC50 hV2/hV1a [1]: 102.1
- IC50 [2]: 1200 nM

Compound: CC(NC(=O)c1ccccc1-n1cnc(Cn2nc(-c3ccc(Cl)cc3)n(C[C@H](O)C(F)(F)F)c2=O)n1)c1ccon1 (stereo partly drawn) [Example 216, 2-[3-({3-(4-Chlorophenyl)-5-oxo-4-[(2S)-3,3,3-trifluoro-2-hydroxypropyl]-4,5-dihydro-1H-1,2,4-triazol-1-yl}methyl)-1H-1,2,4-triazol-1-yl]-N-[1-(1,2-oxazol-3-yl)ethyl]benzamide]
- IC50 [1]: 12 nM
- ratio IC50 hV2/hV1a [1]: 14.2
- IC50 [2]: 170 nM
